Experimental data from paper PMC7168207, “Dibasic Derivatives of Phenylcarbamic Acid as Prospective Antibacterial Agents Interacting with Cytoplasmic Membrane” (Antibiotics, 2020).
Where “and” joins values, the source holds several entries; their conditions need not be identical. Identical values can stand only once. Like-named read-outs stand apart in the source and are kept apart here.

Columns and labels:
[1] = test system: S. aureus ATCC 29213; experiment: MIC, broth microdilution; type: cell-based, Staphylococcus aureus
Experimental: (§1) The modified broth microdilution method was used for in vitro evaluation of minimum inhibitory concentration. A small portion of bacterial colony cultivated overnight onto nutrient agar (Oxoid, Basingstoke, UK) with 5% bovine blood was suspended in sterile phosphate-buffered saline to get cell density 0.5 McFarland. This inoculum was diluted to reach the final concentration of bacterial cells 5 × 10^5 CFU/mL in the wells. […] For plates with staphylococci, cation adjusted Mueller–Hinton (CaMH) broth (Oxoid) was used; enterococci were cultivated in brain heart infusion (BHI, Oxoid). […] A drug-free control and a sterility control were included. Inoculated plates were incubated in aerobic atmosphere at 37 °C overnight. […] After evaluation of MICs, 10 µL of aliquots from the wells were put onto Mueller–Hinton agar. The agar plates were cultivated at 37 °C for 24 h. The minimum bactericidal concentration (MBC) was defined as the lowest concentration of the compound that killed 99.9% of the bacteria compared to the starting inoculum.

[2] = test system: methicillin-resistant S. aureus 63718; experiment: MIC, broth microdilution; type: cell-based, Staphylococcus aureus; settings: MRSA1 = S. aureus 63718; for MIC: read-out: MICs
Experimental: as §1

[3] = test system: methicillin-resistant S. aureus SA 3202; experiment: MIC, broth microdilution; type: cell-based, Staphylococcus aureus; settings: MRSA3 = SA 3202; for MIC: read-out: MICs
Experimental: as §1

[4] = test system: methicillin-resistant S. aureus SA 630; experiment: MIC, broth microdilution; type: cell-based, Staphylococcus aureus; settings: MRSA2 = SA 630; for MIC: read-out: MICs
Experimental: as §1

[5] = test system: E. faecalis ATCC 29212; experiment: MIC, broth microdilution; type: cell-based, Enterococcus faecalis; settings: EF = E. faecalis ATCC 29213
Experimental: as §1

[6] = test system: vancomycin-resistant enterococci VRE 342B; experiment: MIC, broth microdilution; type: cell-based, Enterococcus faecalis; settings: VRE1 = VRE 342B; for MIC: read-out: MICs
Experimental: as §1

[7] = test system: vancomycin-resistant enterococci VRE 368; experiment: MIC, broth microdilution; type: cell-based, Enterococcus faecalis; settings: VRE2 = VRE 368; for MIC: read-out: MICs
Experimental: as §1

[8] = test system: vancomycin-resistant enterococci VRE 725B; experiment: MIC, broth microdilution; type: cell-based, Enterococcus faecalis; settings: VRE3 = VRE 725B; for MIC: read-out: MICs
Experimental: as §1

[9] = test system: Candida albicans CCM 8261; experiment: minimum fungistatic concentration, RPMI 1640; type: cell-based; settings: CCM8261, CA = C albicans CCM 8261, 48 h
Experimental: Fungistatic activity was tested similarly in RPMI (Roswell Park Memorial Institute) 1640 medium (Sigma, Pool, UK). […] A growth control and sterility control were included. The colonies of C. albicans grown overnight on Sabourad dextrose agar were suspended in sterile phosphate-buffered saline (PBS) to get cell density 0.5 McFarland. The inoculum was diluted to get a final concentration of 10^3 CFU/mL in the wells. Plates were inoculated and cultivated at 37 °C for 48 h. The minimum fungistatic concentration was visually evaluated as the lowest concentration of a tested compound, which inhibited 100% of yeast growth. 5-Flucytosin (Sigma, UK) was used as a positive control.

[10] = test system: human monocytic leukemia THP-1 cells; experiment: in vitro antiproliferative assay (WST-1); type: cell-based; settings: THP-1 cells, WST-1, 24 h, read-out: Tox IC50
Experimental: The preliminary in vitro screening of the antiproliferative effect of the investigated compounds was performed using a Water Soluble Tetrazolium salts-1 (WST-1) assay kit and a human monocytic leukemia THP-1 cell line by means of the method described recently. The principle of the WST-1 assay kit is the […] mitochondrial dehydrogenases by antiproliferative compounds. The activity of this enzyme directly correlates with the number of metabolically active cells in the culture. The antiproliferative effect was evaluated as the IC50 value (the concentration of the compound causing 50% inhibition of cell proliferation).
Human monocytic leukemia THP-1 cells were used for in vitro antiproliferative assay. Cells were obtained from the European Collection of Cell Cultures (ECACC, Salisbury, UK) and routinely cultured in RPMI (Roswell Park Memorial Institute) 1640 medium supplemented with 10% fetal bovine serum, 2% L-glutamine, 1% penicillin, and streptomycin at 37 °C with 5% CO2. Cells were passaged at approximately one-week intervals. The antiproliferative activity of the compounds was determined using a Water Soluble Tetrazolium Salts-1 (WST-1, 2-(4-iodophenyl)-3-(4-nitrophenyl)-5-(2,4-disulfophenyl)-2H-tetrazolium) assay kit (Roche Diagnostics, Mannheim, Germany) according to the manufacturer’s instructions. The tested compounds were dissolved in DMSO and added in various compound concentrations to the cell suspension in the culture RPMI 1640 medium. The maximum concentration of DMSO in the assays never exceeded 0.1%. Subsequently, the cells were incubated at 37 °C with 5% CO2 for 24 h. For WST-1 assays, cells were seeded into 96-well plates (5 × 10^4 cells/well in 100 μL culture medium) in triplicate in serum-free RPMI 1640 medium, and measurements were taken 24 h after the treatment with the compounds. The median inhibition concentration values, IC50, were deduced through the production of a dose-response curve. All data were evaluated using GraphPad Prism 5.00 software (GraphPad Software, San Diego, CA, USA).

[11] = design: method as in PMID 30274224; settings: isocratic RP-HPLC, extrapolated lipophilicity index; cited from earlier work
[12] = design: method as in PMID 30274224; settings: cited from earlier work
[13] = design: method as in PMID 30274224; settings: methanolic solutions, c = 8.0 × 10^−5 M; cited from earlier work
[14] = test system: S. aureus ATCC 29213 biofilm; experiment: biofilm inhibition assay (crystal violet); type: cell-based, Staphylococcus aureus; settings: ≥80% inhibition of biofilm formation, 48 h
Experimental: (§2) The ability of compounds 1f, 1g, and 1h to inhibit biofilm growth and destroy the matured biofilm of S. aureus ATCC 29213 was investigated. The inhibitory activity was studied by the method with crystal violet. The activity to disrupt matured biofilm was evaluated as a decrease of metabolic activity using the MTT assay.
The plates were inoculated by inoculum of S. aureus ATCC 29213 grown in TSB + 2% glucose to exponential phase. Before the inoculation of the plate, the original inoculum was diluted to 1 McFarland and then 1:100 in fresh TSB + 2% glucose, to reach the final concentrations in the wells of […]. […] The plates were incubated at 37 °C for 48 h. After incubation, the contents of the wells were removed, and the plates were washed three times by sterile PBS. After drying, 125 μL of 0.5% crystal violet was added to each well and the plates were stained at room temperature for 20 min. Then the dye was removed, and the plates were washed three times by sterile PBS. The colored biofilm was detached from the wells using 33% solution of acetic acid. The absorbance at 595 nm was measured. As a blank, a non-inoculated plate treated in the same way was used. […] The minimum biofilm inhibitory concentration was the lowest concentration of the compounds, which inhibited the growth of 80% bacteria compared to the growth control. The experiment was made in duplicate and repeated at least three times.

[15] = test system: S. aureus ATCC 29213 biofilm; experiment: biofilm susceptibility / eradication of preformed biofilm (MTT); type: cell-based, Staphylococcus aureus; settings: 80% reduction of metabolic activity of preformed biofilm, 24 h
Experimental: as §2
Biofilms were grown as described above but without the presence of the compounds. After 48 h of incubation at 37 °C, the contents of the wells were removed, and the plates were washed three times by sterile PBS. After washing, 100 µL of tested compounds in CaMH were added to the wells. […] A growth control containing 2.5% of DMSO in CaMH was included. The plates were incubated at 37 °C for 24 h, then the solutions of compounds were removed, and the plates were gently washed three times by sterile PBS. Bacterial viability was analyzed using 100 µL of 0.05 mg/mL MTT (3-(4,5-dimethylthiazol-2-yl)- 2,5-diphenyltetrazolium bromide) in PBS in each well. The plates with MTT were incubated at 37 °C for 1–2 h in darkness, until the blue formazan crystals appeared. MTT solution was removed and the plates were washed once by PBS. Crystals of formazan were dissolved using 17% sodium dodecysulphate in 40% dimethylformamid. The absorbance at 570 nm was measured and the percentage of eradication was counted according to the equation (3) % of eradication = 100 − OD570S/OD570C × 100 where OD570S is the absorbance of the sample at 570 nm and OD570C is the absorbance of the growth control at 570 nm. The minimum biofilm eradication concentration was the lowest concentration of the compound, which reduced the metabolic activity of the biofilm by 80% compared to the growth control. The experiment was made in duplicate and repeated at least three times.

[16] = Staphylococcus aureus, ATCC29213, SA = S. aureus ATCC 29213, read-out: MICs
[17] = Enterococcus faecalis, ATCC 29212 / ATCC 29213

SMILES	MIC [1, 16]	MIC ([2]; Staphylococcus aureus)	MIC ([3]; Staphylococcus aureus)	MIC ([4]; Staphylococcus aureus)	MIC [5, 17]	MIC ([6]; Enterococcus)	MIC ([7]; Enterococcus)	MIC ([8]; Enterococcus)	MIC [9]	IC50 ([10]; Homo sapiens, THP-1, 24 h) [µM]	log kw [11]	γ (surface tension, relative surface activity) [12] [N/m]	log ε2 (Ch-T) [13]	IC50 [10] [µM]	further results
CCCCOc1cccc(NC(=O)OC(CN(CCC)CCC)CN2CCCCCC2)c1 (stereo not shown) [1m]	128 µg/mL and 245 µM	32 µg/mL and 61.5 µM	64 µg/mL and 122 µM	64 µg/mL and 122 µM	32 µg/mL and 61.5 µM	32 µg/mL and 61.5 µM	64 µg/mL and 122 µM	16 µg/mL and 30.7 µM	> 128 µg/mL and > 245 µM	4.9 ± 0.19	4.7099	0.06298	4.09	–	–
CCCCCOc1cccc(NC(=O)OC(CN(CCC)CCC)CN2CCCCCC2)c1 (stereo not shown) [1n]	128 µg/mL and 239 µM	64 µg/mL and 119 µM	256 µg/mL and 478 µM	128 µg/mL and 239 µM	16 µg/mL and 29.9 µM	32 µg/mL and 59.9 µM	64 µg/mL and 119 µM	16 µg/mL and 29.9 µM	> 128 µg/mL and > 239 µM	4.99 ± 0.99	5.2087	0.06154	4.18	–	–
CCCCCCOc1cccc(NC(=O)OC(CN(CCC)CCC)CN2CCCCCC2)c1 (stereo not shown) [1o]	> 256 µg/mL and > 466 µM	128 µg/mL and 233 µM	> 256 µg/mL and > 466 µM	> 256 µg/mL and > 466 µM	16 µg/mL and 29.2 µM	32 µg/mL and 58.3 µM	256 µg/mL and 466 µM	8 µg/mL and 14.6 µM	> 128 µg/mL and > 233 µM	< 6.5	5.6569	0.05925	4.01	4.71 ± 0.07	–
CCCCCCCOc1cccc(NC(=O)OC(CN(CCC)CCC)CN2CCCCCC2)c1 (stereo not shown) [1p]	> 256 µg/mL and > 455 µM	256 µg/mL and 455 µM	> 256 µg/mL and > 455 µM	> 256 µg/mL and > 455 µM	8 µg/mL and 14.2 µM	64 µg/mL and 113 µM	256 µg/mL and 455 µM	16 µg/mL and 28.4 µM	> 128 µg/mL and > 227 µM	< 6.5	6.1749	0.05692	4.20	6.32 ± 0.58	–
CCCCCCCCCCCCOS(=O)(=O)[O-].[Na+] [SDS, sodium dodecyl sulfate, reference compound]	–	–	–	–	–	–	–	–	–	–	–	–	–	–	MICs ([1]; SA = S. aureus ATCC 29213): 128 µg/mL; MIC ([1]; SA = S. aureus ATCC 29213, read-out: MICs): 443 µM; MIC ([1]; Table 7, planktonic cells of S. aureus ATCC 29213): 128 µg/mL; MICs [2]: 128 µg/mL; MIC [2]: 443 µM; MICs [3]: 64 µg/mL; MIC [3]: 222 µM; MICs [4]: 64 µg/mL; MIC [4]: 222 µM; MIC [5]: 443 µM; MICs [5]: 128 µg/mL; MICs [6]: 256 µg/mL; MIC [6]: 887 µM; MICs [7]: 128 µg/mL; MIC [7]: 443 µM; MICs [8]: 128 µg/mL; MIC [8]: 443 µM; MBIC80 (minimum biofilm inhibitory concentration) [14]: 32 µg/mL; MBEC80 (minimum biofilm eradication concentration) [15]: 128 µg/mL
